Source: ChEMBL document CHEMBL4371019, “Sanguiin H-11 from Sanguisorbae radix protects HT22 murine hippocampal cells against glutamate-induced death” (2019)
Activity calls are given as the source filed them. The calls are words filed in the database; no cut-off is given here.

Legend:
HT-22 [1] = experiment: Neuroprotective activity against glutamate-induced neuronal cell death in mouse HT22 cells at 10 to 20 uM by microscopic analysis; assay type: functional, cell-based
HT-22 [2] = experiment: Neuroprotective activity against glutamate-induced neuronal cell death in mouse HT22 cells assessed as increase in cell viability at 20 to 50 uM after 24 hrs by MTT assay; assay type: functional, cell-based
[3] = Antioxidant activity assessed as DPPH free radical scavenging activity up to 15 uM incubated for 30 mins; assay type: functional
HT-22 [4] = experiment: Antioxidant activity in mouse HT22 cells assessed as reduction in glutamate-induced increase in intracellular reactive oxygen species level at 10 to 20 uM after 8 hrs by H2DCFDA staining based fluorescence microscopic analysis; assay type: functional, cell-based
HT-22 [5] = experiment: Neuroprotective activity against glutamate-induced neuronal cell death in mouse HT22 cells assessed as reduction in intracellular calcium level at 10 to 20 uM after 8 hrs by fluorescence microscopic analysis; assay type: functional, cell-based
[6] = biological target: Mitogen-activated protein kinase 1 and 3 (ERK2 and ERK1) (Mus musculus) (UniProt P63085+Q63844); experiment: Inhibition of glutamate-induced ERK1/2 phosphorylation in mouse HT22 cells at 10 to 20 after 8 hrs by Western blot analysis; assay type: cell-based
Sequence of Mitogen-activated protein kinase 1 and 3 (ERK2 and ERK1) (Mus musculus) (P63085 whole entry, looked up): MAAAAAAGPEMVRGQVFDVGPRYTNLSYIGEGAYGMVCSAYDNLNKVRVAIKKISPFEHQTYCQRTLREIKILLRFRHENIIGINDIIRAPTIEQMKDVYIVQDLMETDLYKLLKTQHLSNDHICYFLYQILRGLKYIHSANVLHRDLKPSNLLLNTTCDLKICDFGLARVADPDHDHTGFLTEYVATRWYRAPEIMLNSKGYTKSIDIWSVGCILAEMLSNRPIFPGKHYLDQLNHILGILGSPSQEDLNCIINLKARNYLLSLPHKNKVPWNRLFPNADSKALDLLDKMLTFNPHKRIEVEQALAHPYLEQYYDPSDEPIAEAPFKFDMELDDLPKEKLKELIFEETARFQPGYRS
Sequence of Mitogen-activated protein kinase 1 and 3 (ERK2 and ERK1) (Mus musculus) (Q63844 whole entry, looked up): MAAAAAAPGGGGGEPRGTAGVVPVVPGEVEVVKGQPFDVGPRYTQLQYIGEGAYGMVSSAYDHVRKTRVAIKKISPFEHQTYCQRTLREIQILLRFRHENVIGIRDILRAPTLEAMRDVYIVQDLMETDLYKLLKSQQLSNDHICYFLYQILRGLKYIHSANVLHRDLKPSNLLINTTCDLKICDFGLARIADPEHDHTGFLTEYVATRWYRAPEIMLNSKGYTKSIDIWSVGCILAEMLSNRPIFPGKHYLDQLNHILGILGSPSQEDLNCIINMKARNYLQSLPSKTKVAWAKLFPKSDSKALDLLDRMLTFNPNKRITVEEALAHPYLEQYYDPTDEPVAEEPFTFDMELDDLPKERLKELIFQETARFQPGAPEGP

Mus musculus = organism: Mus musculus; experiment: Inhibition of glutamate-induced JNK phosphorylation in mouse HT22 cells at 10 to 20 after 8 hrs by Western blot analysis; assay type: cell-based
[7] = biological target: MAP kinase p38 (Mus musculus) (UniProt P47811+O08911+Q9WUI1+Q9Z1B7); experiment: Inhibition of glutamate-induced p38 MAPK phosphorylation in mouse HT22 cells at 10 to 20 after 8 hrs by Western blot analysis; assay type: cell-based
HT-22 [8] = experiment: Inhibition of glutamate-induced apoptosis in mouse HT22 cells assessed as apoptotic cells at 10 uM after 12 hrs by AlexaFluor 488-Annexin V/propidium iodide staining-based assay (reference value: 54%); assay type: functional; settings: HT-22, 12 h
HT-22 [9] = experiment: Inhibition of glutamate-induced apoptosis in mouse HT22 cells assessed as apoptotic cells at 20 uM after 12 hrs by AlexaFluor 488-Annexin V/propidium iodide staining-based assay (reference value: 54%); assay type: functional; settings: HT-22, 12 h
HT-22 [10] = experiment: Neuroprotective activity against glutamate-induced neuronal cell death in mouse HT22 cells assessed as increase in cell viability at 0.5 to 5 uM after 24 hrs by MTT assay; assay type: functional, cell-based

| inhibition [6] | inhibition [7] | SMILES | Activity (HT-22 [1]) | Activity (HT-22 [2]) | Activity [3] | Activity (HT-22 [4]) | Activity (HT-22 [5]) | inhibition (Mus musculus) | inhibition at 10 µM (HT-22 [8]) [%] | inhibition at 20 µM (HT-22 [9]) [%] | Activity (HT-22 [10]) |
| --- | --- | --- | --- | --- | --- | --- | --- | --- | --- | --- | --- |
| Active | Active | O=C(O[C@@H]1O[C@@H]2COC(=O)c3cc(O)c(O)c(O)c3-c3c(cc(O)c(O)c3O)C(=O)O[C@H]2[C@@H]2OC(=O)c3cc(O)c(O)c(O)c3-c3c(cc(O)c(O)c3O)C(=O)O[C@@H]12)c1cc(O)c(O)c(O)c1 | Active | Active | Active | Active | Active | Active | 12.7 | 8.5 |  |
|  |  | CC(=O)N[C@@H](CS)C(=O)O |  |  |  |  |  |  |  |  | Active |
